Test results as given in article PMC9120017, “Inhibition mechanism of the chloride channel TMEM16A by the pore blocker 1PBC” (Nature Communications, 2022).
pIC50: −log10 of the molar value. Like-named read-outs stand apart in the source and are kept apart here.

Target: T1, mouse TMEM16A mutant Y514A (Mus musculus, UniProt Q8BHY3, Y514A)
T1 construct: expressed in transfected cells; host or cells: HEK293T
T1 sequence (Q8BHY3 1-960 Y514A): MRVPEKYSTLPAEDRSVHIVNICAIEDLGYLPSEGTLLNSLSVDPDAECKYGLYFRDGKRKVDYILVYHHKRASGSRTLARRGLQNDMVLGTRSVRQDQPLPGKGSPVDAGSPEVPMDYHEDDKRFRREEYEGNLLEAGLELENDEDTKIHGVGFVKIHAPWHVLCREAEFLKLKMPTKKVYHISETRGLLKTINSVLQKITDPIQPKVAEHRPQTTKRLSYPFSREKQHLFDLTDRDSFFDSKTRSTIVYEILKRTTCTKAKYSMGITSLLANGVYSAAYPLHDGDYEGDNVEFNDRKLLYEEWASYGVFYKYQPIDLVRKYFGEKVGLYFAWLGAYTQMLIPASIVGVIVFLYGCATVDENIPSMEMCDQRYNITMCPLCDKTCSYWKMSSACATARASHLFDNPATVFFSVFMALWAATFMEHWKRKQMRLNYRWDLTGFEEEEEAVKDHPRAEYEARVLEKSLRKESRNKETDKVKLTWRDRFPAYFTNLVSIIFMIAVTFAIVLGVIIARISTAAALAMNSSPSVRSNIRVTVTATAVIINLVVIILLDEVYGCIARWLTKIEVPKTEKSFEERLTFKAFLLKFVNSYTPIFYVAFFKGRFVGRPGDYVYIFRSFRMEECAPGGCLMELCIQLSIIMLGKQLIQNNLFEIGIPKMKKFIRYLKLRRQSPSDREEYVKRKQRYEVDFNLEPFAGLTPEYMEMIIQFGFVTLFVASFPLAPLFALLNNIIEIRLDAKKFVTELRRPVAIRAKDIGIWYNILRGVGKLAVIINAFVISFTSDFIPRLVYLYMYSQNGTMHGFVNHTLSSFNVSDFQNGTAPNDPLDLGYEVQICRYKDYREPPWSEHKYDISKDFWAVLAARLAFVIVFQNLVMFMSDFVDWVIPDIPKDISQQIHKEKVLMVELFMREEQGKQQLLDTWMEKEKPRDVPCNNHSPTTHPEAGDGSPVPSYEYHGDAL
Test: Inside-out patch recording of 1PBC block, mutant Y514A
Format: cell-based
Conditions: for remaining activity at 10 µM: 1PBC 10; for remaining activity at 10 µM / remaining activity at 30 µM / remaining activity at 100 µM: read-out: fraction of unblocked current; for remaining activity at 30 µM: 1PBC 30; for remaining activity at 100 µM: 1PBC 100
Experimental: HEK293T cells (ATCC CRL-1573) were maintained in Dulbecco’s modified Eagle’s medium (DMEM; Sigma-Aldrich) supplemented with 10 U ml^−1 penicillin, 0.1 mg ml^−1 streptomycin (Sigma-Aldrich), 2 mM L-glutamine (Sigma-Aldrich), and 10% FBS (Sigma-Aldrich) in a humidified atmosphere containing 5% CO2 at 37 °C. HEK293S GnTI^− cells (ATCC CRL-3022) were maintained in HyClone HyCell TransFx-H medium (GE Healthcare) supplemented with 10 U ml^−1 penicillin, 0.1 mg ml^−1 streptomycin, 4 mM L-glutamine, 0.15% poloxamer 188 (Sigma-Aldrich), and 1% FBS in an atmosphere containing 5% CO2 at 185 rpm at 37 °C. The ac splice variant of mouse TMEM16A (UniProt ID: Q8BHY3), mouse TMEM16B (UniProt ID: Q8CFW1), or mouse TMEM16F (UniProt ID: Q6P9J9) bearing a 3C cleavage site, a Venus YFP, a Myc tag, and a Streptavidin-binding peptide (SBP) downstream of the open reading frame in a modified pcDNA3.1 vector (Invitrogen) were used as described previously[21],[31]. Mutations were introduced using a modified QuikChange method[58] and were verified by sequencing.
HEK293T cells were transfected with 3–4 μg DNA per 6 cm Petri dish using the calcium phosphate co-precipitation method and were used within 24–96 h after transfection. Recordings were performed on inside-out patches excised from HEK293T cells expressing the construct of interest. Patch pipettes were pulled from borosilicate glass capillaries (O.D. 1.5 mm, I.D. 0.86 mm, Sutter Instrument) and were fire-polished with a microforge (Narishige) before use. Pipette resistance was typically 3–8 MΩ when filled with the recording solutions detailed below. Seal resistance was typically 4 GΩ or higher. Voltage-clamp recordings were made using Axopatch 200B, Digidata 1550, and Clampex 10.7 (Molecular Devices). Analog signals were filtered with the in-built 4-pole Bessel filter at 10 kHz and were digitized at 20 kHz. Solution exchange was achieved using a gravity-fed system through a theta glass pipette mounted on an ultra-fast piezo-driven stepper (Siskiyou). […] All recordings were performed at 20 °C.
A symmetrical ionic condition was used throughout. Stock solution with Ca^2+-EGTA contained 150 mM NaCl, 5.99 mM Ca(OH)2, 5 mM EGTA, and 10 mM HEPES at pH 7.40. Stock solution with EGTA contained 150 mM NaCl, 5 mM EGTA, and 10 mM HEPES at pH 7.40. Free Ca^2+ concentrations were adjusted by mixing the stock solutions at the required ratios calculated using the WEBMAXC program (http://web.stanford.edu/~cpatton/webmaxcS.htm). Patch pipettes were filled with the stock solution with Ca^2+-EGTA, which has a free Ca^2+ concentration of 1 mM. 1PBC (ChemBridge) stock was reconstituted in anhydrous DMSO (Sigma-Aldrich) at 100 mM and stored at −20 °C. Working solutions with 1PBC were prepared by serial dilution. Unless otherwise stated, experiments were performed at a saturating Ca^2+ concentration as shown in Supplementary Table 1 and the primary data were corrected for current rundown as described previously[21],[25].
Concentration-response relations, obtained from the ratio of the I-V plots before and after the application of the blocker, were fitted to the Hill equation,1 I/Imax=1/1+IC50/[blocker]^h where I/Imax is the normalized current responses, IC50 defines the concentration at which inhibition is at its half-maximum, and h is the Hill coefficient.

pIC50 (0 mV, 2 µM Ca2+): 4.64
remaining activity at 10 µM (0 mV): 71.6%
remaining activity at 10 µM (20 mV): 67.7%
remaining activity at 10 µM (40 mV): 65.8%
remaining activity at 10 µM (60 mV): 59.8%
remaining activity at 10 µM (80 mV): 58.2%
remaining activity at 10 µM (100 mV): 57.1%
remaining activity at 10 µM (120 mV): 53.3%
remaining activity at 10 µM (140 mV): 53.7%
remaining activity at 10 µM (-20 mV): 75.5%
remaining activity at 10 µM (-40 mV): 78.8%
remaining activity at 10 µM (-60 mV): 81.3%
remaining activity at 10 µM (-80 mV): 82.9%
remaining activity at 10 µM (-100 mV): 85.5%
remaining activity at 10 µM (-120 mV): 87.1%
remaining activity at 10 µM (-140 mV): 86.2%
remaining activity at 30 µM (0 mV): 41%
remaining activity at 30 µM (20 mV): 37.8%
remaining activity at 30 µM (40 mV): 34.4%
remaining activity at 30 µM (60 mV): 31.9%
remaining activity at 30 µM (80 mV): 28.9%
remaining activity at 30 µM (100 mV): 27.6%
remaining activity at 30 µM (120 mV): 26.5%
remaining activity at 30 µM (140 mV): 26.4%
remaining activity at 30 µM (-20 mV): 44.3%
remaining activity at 30 µM (-40 mV): 50%
remaining activity at 30 µM (-60 mV): 56.5%
remaining activity at 30 µM (-80 mV): 60.4%
remaining activity at 30 µM (-100 mV): 64.5%
remaining activity at 30 µM (-120 mV): 67.9%
remaining activity at 30 µM (-140 mV): 70.2%
remaining activity at 100 µM (0 mV): 19.2%
remaining activity at 100 µM (20 mV): 15.9%
remaining activity at 100 µM (40 mV): 14.2%
remaining activity at 100 µM (60 mV): 13.7%
remaining activity at 100 µM (80 mV): 12.7%
remaining activity at 100 µM (100 mV): 11.3%
remaining activity at 100 µM (120 mV): 11.7%
remaining activity at 100 µM (140 mV): 12.2%
remaining activity at 100 µM (-20 mV): 22.6%
remaining activity at 100 µM (-40 mV): 25.4%
remaining activity at 100 µM (-60 mV): 29.3%
remaining activity at 100 µM (-80 mV): 32.8%
remaining activity at 100 µM (-100 mV): 38%
remaining activity at 100 µM (-120 mV): 42.9%
remaining activity at 100 µM (-140 mV): 48.1%
pIC50 (20 mV, 2 µM Ca2+): 4.71
pIC50 (40 mV, 2 µM Ca2+): 4.76
pIC50 (60 mV, 2 µM Ca2+): 4.84
log-fold IC50 (change of mutant vs WT) (80 mV): 0.6902
pIC50 (80 mV, 2 µM Ca2+): 4.88
pIC50 (100 mV, 2 µM Ca2+): 4.90
pIC50 (120 mV, 2 µM Ca2+): 4.95
pIC50 (140 mV, 2 µM Ca2+): 4.94
pIC50 (-20 mV, 2 µM Ca2+): 4.57
pIC50 (-40 mV, 2 µM Ca2+): 4.49
pIC50 (-60 mV, 2 µM Ca2+): 4.39
pIC50 (-80 mV, 2 µM Ca2+): 4.32
pIC50 (-100 mV, 2 µM Ca2+): 4.24
pIC50 (-120 mV, 2 µM Ca2+): 4.16
pIC50 (-140 mV, 2 µM Ca2+): 4.09
pIC50 (Y514A, V 0 mV): 4.64
pIC50 (Y514A, V 20 mV): 4.71
pIC50 (Y514A, V 40 mV): 4.76
pIC50 (Y514A, V 60 mV): 4.83
pIC50 (Y514A, V 80 mV): 4.88
pIC50 (Y514A, V 100 mV): 4.90
pIC50 (Y514A, V 120 mV): 4.95
pIC50 (Y514A, V 140 mV): 4.94
pIC50 (Y514A, V -20 mV): 4.57
pIC50 (Y514A, V -40 mV): 4.49
pIC50 (Y514A, V -60 mV): 4.39
pIC50 (Y514A, V -80 mV): 4.32
pIC50 (Y514A, V -100 mV): 4.24
pIC50 (Y514A, V -120 mV): 4.16
pIC50 (Y514A, V -140 mV): 4.09
Structure (SMILES): N#Cc1c(C(F)(F)F)cc(O)n2c1nc1ccccc12 [1PBC]
